According to patent publication US8575135B2 (Gilead Sciences, Inc., priority 2011, dated 2013):
Read-outs that look alike come from different tables or passages of the source.

Experiments:
[1] = system: stable HCV 1a RLuc replicon cells (genotype 1a H77 replicon); test: microbe, parasite or virus in culture; assay type: cell-based; conditions: Hepatitis C virus
[2] = system: stable HCV 1b RLuc replicon cells (genotype 1b Con1 replicon); test: microbe, parasite or virus in culture; assay type: cell-based; conditions: Hepatitis C virus, read-out: 1b (nM)
[3] = system: stable HCV 2a JFH-1 Rluc replicon cells (L31 present in NS5A); test: microbe, parasite or virus in culture; assay type: cell-based; conditions: Hepatitis C virus
[4] = system: NS5A chimeric genotype 1b Con1 replicon with genotype 3a S52 strain NS5A gene; test: microbe, parasite or virus in culture; assay type: cell-based, HCV; conditions: Hepatitis C virus
How it was run: (§1)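 Genotype 3a (S52) and 4a (ED43) NS5A chimeras use 1b Con1 Pi-RLuc replicons, transfected transiently; 2b MD2b-1 NS5A chimera (M31) uses 2a JFH-1 RLuc-Neo replicon, transient or stable.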

[5] = system: NS5A chimeric genotype 2a JFH-1 replicon with genotype 2a J6 strain NS5A gene (M31 present); test: microbe, parasite or virus in culture; assay type: cell-based, HCV; conditions: Hepatitis C virus
[6] = system: NS5A chimeric genotype 2a JFH-1 replicon with genotype 2b MD2b-1 strain NS5A gene (M31 present); test: microbe, parasite or virus in culture; assay type: cell-based, HCV; conditions: Hepatitis C virus
How it was run: as §1

[7] = system: 1a Pi-Rluc replicon with Q30R in genotype 1a NS5A; test: microbe, parasite or virus in culture; assay type: cell-based, HCV; conditions: Hepatitis C virus
How it was run: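 Renilla luciferase replicon assay: 1a Pi-RLuc replicon carrying NS5A Q30R, transfected transiently into cured-51 (Huh-7-derived) cells.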

[8] = IV and PO single dose pharmacokinetic studies in SD rats; assay type: in vivo; conditions: male, Sprague-Dawley, rat, plasma, IV infusion 1 mg/kg vs oral gavage 2 mg/kg, read-out: Rat % F
Experimental: IV and PO Single Dose Pharmacokinetic Studies in SD Rats: The pharmacokinetics of selected compounds was characterized in male Sprague-Dawley (SD) rats (250-300g). […] The intravenous (IV) dosing vehicle was 5% ethanol, 35% polyethylene glycol 400 (PEG 400) and 60% water pH 2.0. […] Serial blood samples (approximately 0.3 mL each) were collected from jugular vein or other suitable vein at specified time points. […] The blood samples were collected into Vacutainer™ tubes containing EDTA-K3 as the anti-coagulant and were centrifuged at approximately 4° C. to obtain plasma. The plasma samples were stored at −20° C. until analysis by LC/MS/MS. A bioanalytical method utilizing high performance liquid chromatography coupled to tandem mass spectrometry (LC/MS/MS) was developed for analysis of the selected compound in rat plasma. Detection was performed using selected reaction monitoring (SRM); […] Standard curve and quality control samples were prepared in male rat plasma and processed in the same way as the test samples to generate quantitative data. Pharmacokinetic parameters were generated using non-compartmental pharmacokinetic analysis (Phoenix WinNonlin, version 6.3). Values below the lower limit of quantification (LLOQ) were assigned a value of zero if predose and treated as missing thereafter. Area under the curve (AUC) was calculated using the linear trapezoidal rule. The oral bioavailability (% F) was determined by comparison of the area under the curve (AUC) of the compound and/or a metabolite generated in plasma following oral administration to that generated following intravenous administration.

[9] = system: NS5A chimeric genotype 1b Con1 replicon with genotype 4a ED43 strain NS5A gene; test: microbe, parasite or virus in culture; assay type: cell-based, HCV; conditions: Hepatitis C virus

| SMILES | EC50 ([1]; read-out: 1a) | EC50 ([1]; read-out: 1a (nM)) | EC50 [2] | EC50 ([3]; read-out: 2a JFH) | EC50 ([3]; read-out: 2a JFH (nM)) | EC50 ([4]; read-out: 3a) | EC50 ([4]; read-out: 3a (nM)) | EC50 ([5]; read-out: 2a J6) | EC50 ([5]; read-out: 2a Jb (t) (nM)) | EC50 ([6]; read-out: 2b) | EC50 ([6]; read-out: 2b (t) (nM)) | EC50 ([7]; read-out: 1a Q30R) | EC50 ([7]; read-out: 1a Q30R (nM)) | bioavailability [8] | EC50 ([5]; read-out: 2a J6 (s) (nM)) | EC50 ([6]; read-out: 2b (s) (nM)) | EC50 ([9]; read-out: 4a) | EC50 ([9]; read-out: 4a (s) (nM)) | EC50 ([9]; read-out: 4a (t) (nM)) |
| --- | --- | --- | --- | --- | --- | --- | --- | --- | --- | --- | --- | --- | --- | --- | --- | --- | --- | --- | --- |
| CCC(C)[C@H](NC(=O)OC)C(=O)N1C[C@@H](C)CC1c1ncc(-c2ccc3c(c2)COc2cc4c(ccc5nc([C@@H]6CC(COC)CN6C(=O)[C@H](NC(=O)OC)c6ccccc6)[nH]c54)cc2-3)[nH]1 (stereo in doubt) [Example QB, Methyl {(1R)-2-[(2S,4S)-2-(9-{2-[(2S,4S)-1-{(2S,3R)-2-[(methoxycarbonyl)amino]-3-methylpentanoyl}-4-methylpyrrolidin-2-yl]-1H-imidazol-5-yl}-1,11-dihydroisochromeno[4′,3′:6,7]naphtho[1,2-d]imidazol-2-yl)-4-(methoxymethyl)pyrrolidin-1-yl]-2-oxo-1-phenylethyl}carbamate] | < 1 nM | 0.011 nM | 0.011 nM | < 1 nM | 0.008 nM | < 1 nM | 0.028 nM | < 1 nM | 0.021 nM | < 1 nM | 0.022 nM | < 1 nM | 0.029 nM | 9.56% | – | – | – | – | – |
| COC[C@H]1C[C@@H](c2nc3ccc4cc5c(cc4c3[nH]2)OCc2cc(-c3cnc([C@@H]4CC[C@H](C)N4C(=O)[C@@H](NC(=O)OC)C(C)C)[nH]3)ccc2-5)N(C(=O)[C@@H](NC(=O)OC)C(C)C)C1 [Example MP, methyl{(2S)-1-[(2S,5S)-2-(5-{2-[(2S,4S)-1-{(2S)-2-[(methoxycarbonyl)amino]-3-methylbutanoyl}-4-methoxymethylpyrrolidin-2-yl]-1,11-dihydroisochromeno[4′,3′:6,7]naphtho[1,2-d]imidazol-9-yl}-1H-imidazol-2-yl)-5-methylpyrrolidin-1-yl]-3-methyl-1-oxobutan-2-yl}carbamate] | < 1 nM | 0.006 nM | – | < 1 nM | 0.004 nM | < 1 nM | 0.015 nM | < 1 nM | 0.039 nM | < 1 nM | 0.032 nM | < 1 nM | 0.031 nM | 24.2% | 0.336 nM | 0.184 nM | < 1 nM | 0.013 nM | 0.015 nM |
| COC(=O)N[C@H](C(=O)N1[C@@H](C)CC[C@H]1c1ncc(-c2ccc3c(c2)COc2cc4c(ccc5nc([C@@H]6CC[C@H](C)N6C(=O)[C@@H](NC(=O)OC)[C@@H](C)OC)[nH]c54)cc2-3)[nH]1)[C@@H](C)OC [Example NI, Methyl [(2S,3R)-3-methoxy-1-{(2S,5S)-2-[9-(2-{(2S,5S)-1-[N-(methoxycarbonyl)-O-methyl-L-threonyl]-5-methylpyrrolidin-2-yl}-1H-imidazol-5-yl)-1,11-dihydroisochromeno[4′,3′:6,7]naphtho[1,2-d]imidazol-2-yl]-5-methylpyrrolidin-1-yl}-1-oxobutan-2-yl]carbamate] | < 1 nM | 0.015 nM | – | < 1 nM | 0.007 nM | < 1 nM | 0.022 nM | < 1 nM | 0.026 nM | < 1 nM | 0.019 nM | < 1 nM | 0.059 nM | 24.1% | 0.169 nM | 0.054 nM | < 1 nM | – | 0.02 nM |
| COC[C@H]1C[C@@H](c2nc3ccc4cc5c(cc4c3[nH]2)OCc2cc(-c3cnc([C@@H]4CC[C@H](C)N4C(=O)[C@@H](NC(=O)OC)C(C)C)[nH]3)ccc2-5)N(C(=O)[C@H](NC(=O)OC)c2ccccc2)C1 [Example NP, Methyl {(2S)-1-[(2S,5S)-2-(5-{2-[(2S,4S)-1-{(2R)-2-[(methoxycarbonyl)amino]-2-phenylacetyl}-4-(methoxymethyl)pyrrolidin-2-yl]-1,11 dihydroisochromeno[4′,3′:6,7]naphtho[1,2-d]imidazol-9-yl}-1H-imidazol-2-yl)-5-methylpyrrolidin-1-yl]-3-methyl-1-oxobutan-2-yl}carbamate] | < 1 nM | 0.014 nM | – | < 1 nM | 0.007 nM | < 1 nM | 0.02 nM | < 1 nM | 0.01 nM | < 1 nM | 0.011 nM | < 1 nM | 0.032 nM | 26.1% | 0.096 nM | 0.043 nM | < 1 nM | 0.028 nM | – |
| COC[C@H]1C[C@@H](c2nc3ccc4cc5c(cc4c3[nH]2)OCc2cc(-c3cnc([C@@H]4C[C@H](C)CN4C(=O)[C@H](NC(=O)OC)c4ccccc4)[nH]3)ccc2-5)N(C(=O)[C@@H](NC(=O)OC)C(C)C)C1 [Example PF, methyl {1-[2-{9-[2-(1-{[(methoxycarbonyl)amino](phenyl)acetyl}-4-methylpyrrolidin-2-yl)-1H-imidazol-5-yl]-1,11-dihydroisochromeno[4′,3′:6,7]naphtho[1,2-d]imidazol-2-yl}-4-(methoxymethyl)pyrrolidin-1-yl]-3-methyl-1-oxobutan-2-yl}carbamate] | < 1 nM | 0.032 nM | – | < 1 nM | 0.014 nM | < 1 nM | 0.072 nM | < 1 nM | 0.025 nM | < 1 nM | 0.023 nM | < 1 nM | 0.034 nM | 4.3% | 0.127 nM | 0.117 nM | < 1 nM | 0.018 nM | 0.05 nM |
| COC[C@H]1C[C@@H](c2ncc(-c3ccc4c(c3)COc3cc5c(ccc6nc([C@@H]7CC[C@H](C)N7C(=O)[C@@H](NC(=O)OC)[C@@H](C)OC)[nH]c65)cc3-4)[nH]2)N(C(=O)[C@@H](NC(=O)OC)C(C)C)C1 [Example PI, methyl {(2S)-1-[(2S,4S)-2-(5-{2-[(2S,5S)-1-{(2S,3R)-3-methoxy-2-[(methoxycarbonyl)amino]butanoyl}-5-methylpyrrolidin-2-yl]-1,11-dihydroisochromeno[4′,3′:6,7]naphtho[1,2-d]imidazol-9-yl}-1H-imidazol-2-yl)-4-(methoxymethyl)pyrrolidin-1-yl]-3-methyl-1-oxobutan-2-yl}carbamate] | < 1 nM | 0.031 nM | 0.039 nM | < 1 nM | 0.02 nM | < 1 nM | 0.065 nM | < 1 nM | 0.129 nM | < 1 nM | 0.09 nM | < 1 nM | 0.094 nM | 8.7% | – | – | – | – | – |
| COC[C@H]1C[C@@H](c2ncc(-c3ccc4c(c3)COc3cc5c(ccc6nc([C@@H]7CC[C@H](C)N7C(=O)[C@@H](NC(=O)OC)C(C)C)[nH]c65)cc3-4)[nH]2)N(C(=O)[C@H](NC(=O)OC)c2ccccc2)C1 [Example PY, Methyl {(2S)-1-[(2S,5S)-2-(9-{2-[(2S,4S)-1-{(2R)-2-[(methoxycarbonyl)amino]-2-phenylacetyl}-4-(methoxymethyl)pyrrolidin-2-yl]-1H-imidazol-5-yl}-1,11-dihydroisochromeno[4′,3′:6,7]naphtho[1,2-d]imidazol-2-yl)-5-methylpyrrolidin-1-yl]-3-methyl-1-oxobutan-2-yl}carbamate] | < 1 nM | 0.012 nM | – | < 1 nM | 0.006 nM | < 1 nM | 0.017 nM | < 1 nM | 0.009 nM | < 1 nM | 0.007 nM | < 1 nM | 0.013 nM | 27.7% | 0.098 nM | 0.03 nM | < 1 nM | 0.018 nM | – |
